For orientation: IC50 means the concentration that inhibits the measured activity by half. Low readings indicate greater potency in that assay, high ones weaker potency in that assay.

This is an account of results in patent US5567728A, “Receptor ligands” (priority 1991, dated 1996).

Counter-ions that a name gives are not always drawn.

In test [1] the target is T1, Human thyroid hormone receptor β1 (hThR β1) (Homo sapiens, UniProt P10828).
T1 construct: made in house; host or cells: insect cells, recombinant baculovirus
T1 sequence (P10828 1-461): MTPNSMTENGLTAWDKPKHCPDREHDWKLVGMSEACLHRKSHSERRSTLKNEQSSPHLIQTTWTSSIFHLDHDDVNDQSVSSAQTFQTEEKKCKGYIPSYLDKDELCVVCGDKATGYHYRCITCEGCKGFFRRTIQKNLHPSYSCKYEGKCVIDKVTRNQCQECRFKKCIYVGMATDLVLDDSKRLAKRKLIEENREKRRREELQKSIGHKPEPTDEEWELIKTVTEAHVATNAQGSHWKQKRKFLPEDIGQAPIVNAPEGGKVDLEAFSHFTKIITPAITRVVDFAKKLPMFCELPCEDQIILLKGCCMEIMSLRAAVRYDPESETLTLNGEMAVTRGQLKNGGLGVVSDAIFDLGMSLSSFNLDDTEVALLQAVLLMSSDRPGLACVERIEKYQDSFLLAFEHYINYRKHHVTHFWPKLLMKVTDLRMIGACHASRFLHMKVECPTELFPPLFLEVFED
As to the kind of experiment: Binding experiments: displacement of 125I-T-3 from hThR β1. The note with it: [hThRβ]=5.0×10^-11 M; [125I-T3]=2.0×10^-10 M; pH 7,5; incubated over night (16-20 hours); not above +4° C. The procedure: Human thyroid hormone receptor β1 (hThR β1) was expressed in insect cells using a recombinant baculovirus (Barkhem T., et al. The Journal of Steroid Biochemistry and Molecular Biology: Vol 38, No 6 (1991) p 667).
Solutions of hThR β1 and of ^125 I-T-3 were made in E400 (K2 HPO4 =20 mM, KCl=400 mM, MgCl2 =l mM, EDTA=0,5 mM, monothioglycerol=6 mM, glycerol 8,7% (v/v), histones (type 11AS) 10 μg/ml pH=7,5). Histones and Monothioglycerol were purchased from Sigma (St. Louis, Mo., USA), the other compounds in E400 were from Merck (Darmstadt, BRD). […] Stock solutions of the compound (011) (20 mM) was made in 5% EtOH/1 mM NaOH.
For convenience the incubations were performed over night (16-20 hours).
The incubation was stopped by the loading of 180 μl incubation mixture on a Quik-Sep Sephadex G-25 column (#9041-35-4 ISOLAB, Akron, Ohio, USA). The peak of protein-bound 125 I-T-3 was eluted with 1 ml E400 and collected in a test tube (passage of free T-3 through column is delayed). The eluted radioactivity was measured in a gamma-counter.
All incubations and dilutions were made in polypropylene tubes. Great care was taken to avoid exposure of hThR β1 to temperatures above +4° C.
(DeLean, A., et al, Am. J. Physiol. 235: E97-E102. (1978)).
The calculations were performed in KaleidaGraph™ 2.0.2 (Adelbeck Software) on a Macintosh IIcx computer.
Experiments conducted with [hThRβ]=5.0×10^-11 M and with [^125 I-T3 ]=2.0×10^-10 M
In general terms: Displacement assays read how much labelled ligand stays bound in the presence of the test substance.

The subject of a further test is T-3 receptor. As to the kind of experiment: biological assay, such as the method of Westerfield et al. (T-3 receptor antagonism). The note with it: "can be shown" by a biological assay such as Westerfield et al.; no data given.
In test [2] the test system is rat growth hormone (rGH) mRNA levels in cultured rat pituitary cells. The note with it: dose dependent; cited from earlier work.
Test [3] deals with isolated intestine of the guinea-pig. The note with it: cited from earlier work.
Test [4] deals with coronary vessels of the heart of the rabbit. The note with it: cited from earlier work.

For the compound `CCCCc1oc2ccccc2c1C(O)c1cc(I)c(OCCN(CC)CC)c(I)c1` (stereo not shown) [(001), 3,5-diiodo-4-(2-N,N-diethylaminoethoxy)phenyl-(2-butyl-benzofur-3-yl)methanol hydrochloride], in test [1], the half-maximal inhibitory concentration (IC50) worked out at 3.6 µM. Moreover, in the test on T-3 receptor, the T-3 receptor antagonism result is given as “T-3 receptor antagonists”.

`CCCCc1oc2ccccc2c1C(=O)c1cc(I)c(OCC(=O)O)c(I)c1` [(005), 2-n-butyl-3-(3,5-diiodo-4-carboxymethoxy-benzoyl)benzofuran] had a 50% inhibitory concentration (IC50) in test [1] of 4 µM. For the same compound, the T-3 receptor antagonism entry in the test with T-3 receptor is “T-3 receptor antagonists”.

As for `Cc1oc2ccccc2c1Cc1cc(I)c(OCC(=O)O)c(I)c1` [(015), 2-methyl-3-(3,5-diiodo-4-carboxymethoxybenzyl)benzofuran], in test [1], the IC50 turned out to be 8 µM. Moreover, the T-3 receptor antagonism result with T-3 receptor is reported as “T-3 receptor antagonists”.

In the case of `CCCCc1oc2ccccc2c1C(=O)c1cc(I)c(OCCN(CC)CC)c(I)c1` [Amiodarone], the “inhibition of T-3 induced increase in rGH mRNA levels” value in test [2] was “inhibit T-3 induced increase in rat growth hormone (rGH) mRNA levels”.

The compound `Oc1ccc(Cc2cc(I)c(O)c(I)c2)cc1I` [(032), 4', 4-dihydroxy-3'3,5-triiodo-diphenylmethan] gave an IC50 in test [1] of 0.42 µM. In addition, in the test on T-3 receptor, the T-3 receptor antagonism result is “T-3 receptor antagonists”.

As to `CN(C)CCOc1c(I)cc(C(=O)c2ccc(O)c(I)c2)cc1I` [(024), 4'-hydroxy-3'-iodo-3,5-diiodo-4-(2-N,N-dimethylaminoethoxy))benzophenon hydrochloride], the 50% inhibitory concentration (IC50) in test [1] stood at 11 µM. Also, the T-3 receptor antagonism result in the test with T-3 receptor is “T-3 receptor antagonists”.

In test [1], `CCCCc1oc2ccccc2c1C(=O)c1ccc(O)c(I)c1` [(029), 2-butyl-3-(3-iodo-4-hydroxybenzoyl)benzofuran] came in with an IC50 of 3.2 µM. In the test on T-3 receptor, the T-3 receptor antagonism entry was “T-3 receptor antagonists”.

`CCN(CC)CCOc1c(I)cc(C(=O)c2c(C)oc3ccccc23)cc1I` [(003), 2-methyl-3-(3,5-diiodo-4-(2-N,N-diethylaminoethoxy)-benzoyl)-benzofuran hydrochloride] gave an IC50 in test [1] of 10 µM. Also, the T-3 receptor antagonism result in the test with T-3 receptor is on record as “T-3 receptor antagonists”.

With `Cc1oc2ccccc2c1C(=O)c1cc(I)c(O)c(I)c1` [(011), 2-methyl-3-(3,5-diiodo-4-hydroxy-benzoyl)benzofuran], the IC50 in test [1] worked out at 2.5 µM. Moreover, the T-3 receptor antagonism entry with T-3 receptor was “T-3 receptor antagonists”. In addition, the spasmolytic activity entry in test [3] is reported as “spasmolytic activity”. The “dilatory effects on coronary vessels” value in test [4] is on record as “some dilatory effects on the coronary vessels”.
